Laboratory results reported in patent publication US20050245399A1, “Pyrazole derivatives as herbicidal compositions containing them” (ISHIHARA SANGYO KAISHA, LTD., priority 2004, published 2005).

How the values were obtained:
Assay type in all cases: in vivo
[1] = system: wheat (Triticum aestivum L.): TRZAX; assay: Test Example 1 pre-emergence herbicidal activity, TRZAX; conditions: Rate 63 g a.i./ha, visually observed 20th to 23rd day after application
Summary of the method: (§1)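 Seeds sown in upland field soil in pots; one day later compound, formulated as wettable powder or emulsifiable concentrate and diluted with water at 500 L/ha, sprayed pre-emergence at a predetermined active-ingredient rate. Growth control scored visually 20–23 days after application, 0 (untreated-like) to 100 (complete kill) %.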

[2] = system: rice (Oryza sativa L.): ORYSA; assay: Test Example 1 pre-emergence herbicidal activity, ORYSA; conditions: Rate 63 g a.i./ha, visually observed 20th to 23rd day after application
Summary of the method: as §1

[3] = system: barnyardgrass (Echinochloa crus-galli L.), ECHCG; assay: Test Example 2 post-emergence (foliage treatment) herbicidal activity, ECHCG
Summary of the method: (§2)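 Pot-grown plants in upland soil were sprayed over the foliage at ECHCG 1.1-2.1, DIGSA 1.0-2.0, AMARE 0.1-1.5 and ORYSA 1.0-2 leaf stage. Wettable powder or emulsifiable concentrate was diluted in water at 500 L/ha plus 0.1% (v/v) spreader. Growth control was scored visually 20-23 days later, 0 (untreated) to 100% (complete kill).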

[4] = system: common cocklebur (Xanthium strumarium L.): XANST; assay: Test Example 1 pre-emergence herbicidal activity, XANST; conditions: Rate 63 g a.i./ha, visually observed 20th to 23rd day after application
Excerpt: Upland field soil was put into a 1/170,000 ha pot, and seeds of various plants {1. barnyardgrass (Echinochloa crus-galli L.): ECHCG, 2. crabgrass (Digitaria sanguinalis L.): DIGSA, 3. green foxtail (Setaria viridis L.): SETVI, 4. redroot pigweed (Amaranthus retroflexus L.): AMARE, 5. prickly sida (Sida spinosa L.): SEDSP, 6. velvetleaf (Abutilon theophrasti): ABUTH, 7. common cocklebur (Xanthium strumarium L.): XANST, 8. rice (Oryza sativa L.): ORYSA, 9. wheat (Triticum aestivum L.): TRZAX, 10. corn (Zea mays L.): ZEAMX, 11. soybean (Glycine max Merr.): GLXMA} were sown. Then, one day after the sowing, a wettable powder or emulsifiable concentrate having the compound of the present invention formulated in accordance with a usual formulation method, was weighed so that the active ingredient would be a predetermined amount and diluted with water in an amount of 500 L/ha. The herbicide adjusted was applied by a small size sprayer for preemergence treatment. On the 20th to 23rd day after the application of the herbicide, the growth of the respective plants was visually observed, and the herbicidal effects were evaluated by growth controlling degrees (%) ranging from 0 (equivalent to the untreated control) to 100 (complete kill), whereby the results shown in Table 4, were obtained. Compound Nos. in Table 4 correspond to Compound Nos. in Table 1 and 2 given hereinbefore.

[5] = system: green foxtail (Setaria viridis L.), SETVI; assay: Test Example 2 post-emergence (foliage treatment) herbicidal activity, SETVI
Summary of the method: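 A small sprayer delivered the diluted WP or EC formulation (500 L/ha water, 0.1% v/v spreader) over emerged seedlings in upland soil pots. Damage relative to untreated plants was graded visually from 0 to 100% three weeks or so later (days 20-23).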

[6] = system: barnyardgrass (Echinochloa crus-galli L.): ECHCG; assay: Test Example 1 pre-emergence herbicidal activity, ECHCG; conditions: Rate 63 g a.i./ha, visually observed 20th to 23rd day after application
Summary of the method: as §1

[7] = system: soybean (Glycine max Merr.): GLXMA; assay: Test Example 1 pre-emergence herbicidal activity, GLXMA; conditions: Rate 63 g a.i./ha, visually observed 20th to 23rd day after application
Summary of the method: as §1

[8] = system: prickly sida (Sida spinosa L.): SEDSP; assay: Test Example 1 pre-emergence herbicidal activity, SIDSP; conditions: Rate 63 g a.i./ha, visually observed 20th to 23rd day after application
Summary of the method: as §1

[9] = system: velvetleaf (Abutilon theophrasti): ABUTH; assay: Test Example 1 pre-emergence herbicidal activity, ABUTH; conditions: Rate 63 g a.i./ha, visually observed 20th to 23rd day after application
Summary of the method: as §1

[10] = system: japanese bulrush (Scirpus juncoides: SCPJO); assay: Test Example 3 water application herbicidal activity (paddy), SCPJO; conditions: 63 g a.i./ha, water application under submerged condition at 0.5 leaf stage, visually observed 14th day after application; 0 = untreated control, 100 = complete kill
Summary of the method: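 Submerged application in flooded paddy soil (3–4 cm water); weeds treated at 0.5-leaf stage, transplanted rice 4 d after transplanting. Scored visually as % growth control: weeds at 14 d, rice at 21 d.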

[11] = system: rice (Oryza sativa L.: ORYSA); assay: Test Example 3 water application herbicidal activity (paddy), transplanted rice ORYSA; conditions: 63 g a.i./ha, water application 4th day after transplantation of 2 leaf stage rice, visually observed 21st day after application; 0 = untreated control, 100 = complete kill
Summary of the method: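 Rice at 2-leaf stage is transplanted into flooded puddled soil and treated by water application 4 days later, at a predetermined active-ingredient dose. Crop injury is rated visually as growth control (0–100%) 21 days after treatment.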

[12] = system: crabgrass (Digitaria sanguinalis L.), DIGSA; assay: Test Example 2 post-emergence (foliage treatment) herbicidal activity, DIGSA
Summary of the method: as §2

[13] = system: common cocklebur (Xanthium strumarium L.), XANST; assay: Test Example 2 post-emergence (foliage treatment) herbicidal activity, XANST
Excerpt: Upland field soil was put into a 1/170,000 ha pot, and seeds of various plants were sown. Then, when the plants reached predetermined leaf stages {1. barnyardgrass (Echinochloa crus-galli L.), ECHCG: 1.1-2.1 leaf stage, 2. crabgrass (Digitaria sanguinalis L.), DIGSA: 1.0-2.0 leaf stage, 3. green foxtail (Setaria viridis L.), SETVI: 1.0-2.2 leaf stage, 4. redroot pigweed (Amaranthus retroflexus L.), AMARE: 0.1-1.5 leaf stage, 5. prickly sida (Sida spinosa L.), SIDSP: 0.1-0.6 leaf stage, 6. velvetleaf (Abutilon theophrasti), ABUTH: 0.1-0.6 leaf stage, 7. common cocklebur (Xanthium strumarium L.), XANST: 0.1 leaf stage, 8. rice (Oryza sativa L.), ORYSA; 1.0-2 leaf stage, 9. wheat (Triticum aestivum L.), TRZAX: 2.3-3.5 leaf stage, 10. corn (Zea mays L.), ZEAMXN 2.1-2.6 leaf stage, 11. soybean (Glycine max Merr.), GLXMA: primary leaf stage}, a wettable powder or emulsifiable concentrate having the compound of the present invention formulated in accordance with a usual formulation method, was weighed so that the active ingredient would be a predetermined amount, and diluted with water in an amount of 500 L/ha. To the diluted solution, 0.1% (v/v) of an agricultural spreader was added. The herbicide adjusted was applied by a small size sprayer for foliage treatment. On the 20th to 23rd day after the application of the herbicide, the growth of the respective plants was visually observed, and the herbicidal effects were evaluated by growth controlling degrees (%) ranging from 0 (equivalent to the untreated control) to 100 (complete kill), whereby the results shown in Table 5, were obtained. Compound Nos. in Table 5 correspond to Compound Nos. in Table 1 and 2 given hereinbefore.

Row | SMILES | Pre-emergence Herbicidal Activity TRZAX (growth controlling degree) [1] [%] | Pre-emergence Herbicidal Activity ORYSA (growth controlling degree) [2] [%] | growth controlling degree, ECHCO ([3]; 63 g a.i./ha) [%] | Pre-emergence Herbicidal Activity XANST (growth controlling degree) [4] [%] | growth controlling degree, SETVI ([5]; 63 g a.i./ha) [%] | Pre-emergence Herbicidal Activity ECHCG (growth controlling degree) [6] [%] | Pre-emergence Herbicidal Activity GLXMA (growth controlling degree) [7] [%] | Pre-emergence Herbicidal Activity SIDSP (growth controlling degree) [8] [%] | Pre-emergence Herbicidal Activity ABUTH (growth controlling degree) [9] [%] | growth controlling degrees (%) SCPJO [10] [%] | growth controlling degrees (%) ORYSA [11] [%] | growth controlling degree, DIGSP ([12]; 63 g a.i./ha) [%] | growth controlling degree, XANST ([13]; 63 g a.i./ha) [%] | growth controlling degree, ECHCO ([3]; 125 g a.i./ha) [%] | growth controlling degree, SETVI ([5]; 125 g a.i./ha) [%] | growth controlling degree, DIGSP ([12]; 125 g a.i./ha) [%] | growth controlling degree, XANST ([13]; 125 g a.i./ha) [%]
1 | COc1c(Cl)cc(F)c(-c2nn(C)c(OC(F)F)c2Cl)c1N(C(=O)C=C(C)C)C(=O)C=C(C)C [Compound 1-11] | 20 | 40 | 70 | 30 | 100 | 70 | 50 | 100 | 100 | 40 | 35 | 40 | 30 | – | – | – | –
2 | COc1c(Cl)cc(F)c(-c2nn(C)c(OC(F)F)c2Cl)c1N(C=O)C1CCCC1 [Compound 1-10] | 40 | 70 | 90 | 100 | 100 | 90 | 50 | 100 | 100 | 40 | 10 | 60 | 100 | – | – | – | –
3 | Cn1nc(-c2c(F)cc(Cl)c(OC(F)F)c2N)c(Cl)c1OC(F)F [Compound 1-81, 3-chloro-6-[4-chloro-5-(difluoromethoxy)-1-methyl-1H-pyrazol-3-yl]-2-(difluoromethoxy)-5-fluorobenzenamine] | 20 | 20 | – | 60 | – | 90 | 20 | 100 | 100 | 100 | 35 | – | – | 100 | 100 | 100 | 100
